Laboratory results: PMC4629899, “Structural and Enzymatic Characterization of a Nucleoside Diphosphate Sugar Hydrolase from Bdellovibrio bacteriovorus” (PLoS ONE, 2015)

Legend:
[1] = biological target: T1, Bd-NDPSase (Bd3179) (Bdellovibrio bacteriovorus, UniProt Q6MIH8, E140Q); assay: X-ray crystal structure, […] A (soak); type: binding; details: crystals soaked in 5 mM ADPR for 2 days; catalytically inactive mutant; active site, no metal added
T1 construct: gene nudF; gene cloned from HD100 chromosomal DNA into pET24a, expressed in E. coli BL21 (DE3); conventional purification, no tag mentioned; homodimer, residues numbered to 182

[2] = biological target: T1, Bd-NDPSase (Bd3179); assay: X-ray crystal structure, […] A; type: binding; details: from crystals with 5 mM UDP-glucose (co-crystallization per methods, soak per results); active site, shifted toward phosphate position
[3] = substrate: Nc1nc2c(ncn2[C@@H]2O[C@H](COP(=O)(O)OP(=O)(O)O[C@H]3O[C@H](CO)[C@@H](O)[C@H](O)[C@@H]3O)[C@@H](O)[C@H]2O)c(=O)[nH]1; assay: phosphate release assay (Ames, coupled to calf intestinal phosphatase); type: biochemical, Bdellovibrio bacteriovorus; details: 5 mM MgCl2, 50 mM Tris-HCl pH 8.6, 1 mM EDTA
Text: phosphate release assay (Ames, coupled to calf intestinal phosphatase) on Bd-[…]

T1 sequence (Q6MIH8 entry or part of it E140Q): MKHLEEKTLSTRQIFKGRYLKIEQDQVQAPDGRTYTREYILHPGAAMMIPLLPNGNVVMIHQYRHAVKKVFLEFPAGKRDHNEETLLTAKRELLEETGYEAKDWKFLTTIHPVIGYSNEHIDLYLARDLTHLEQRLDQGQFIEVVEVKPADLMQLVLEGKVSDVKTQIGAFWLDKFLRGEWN

Molecule: Nc1ncnc2c1ncn2[C@@H]1O[C@H](COP(=O)(O)OP(=O)(O)OC[C@H]2OC(O)[C@H](O)[C@@H]2O)[C@@H](O)[C@H]1O (stereo partly shown) [ADPR, ADP-ribose]
- X-ray crystal structure, 2.06 A (soak) [1]: E140Q Bd-NDPSase in complex with ADP-ribose (PDB ID 5C7T)

Molecule: OC[C@H]1OC(O)[C@H](O)[C@@H](O)[C@@H]1O (stereo partly shown) [glucose]
- X-ray crystal structure, 1.80 A [2]: E140Q Bd-NDPSase in complex with glucose (PDB ID 5C8L)

B1: Bd-NDPSase (Bd3179) (Bdellovibrio bacteriovorus HD100) (protein)
chain: MKHLEEKTLSTRQIFKGRYLKIEQDQVQAPDGRTYTREYILHPGAAMMIPLLPNGNVVMIHQYRHAVKKVFLEFPAGKRDHNEETLLTAKRELLEETGYEAKDWKFLTTIHPVIGYSNEHIDLYLARDLTHLEQRLDQGEFIEVVEVKPADLMQLVLEGKVSDVKTQIGAFWLDKFLRGEWN
notes: gene cloned from HD100 chromosomal DNA into pET24a, expressed in E. coli BL21 (DE3); conventional purification, no tag mentioned; homodimer, residues numbered to 182
- Km [3]: 300 µM
- kcat [3]: 5200 s⁻¹
